In PubChem BioAssay AID1963421 (Molecular Pharmacology Branch, DTP, NCI, 2024):

Test system: 519858-162-T-J1-PDC complex spheroid growth, % test/control
Assay: Anticancer human tumor 519858-162-T-J1-PDC patient-derived colon adenocarcinoma cell line growth inhibition [Asc]
Conditions: for IC50: curve of first compound; for viability, T/C: stronger effect = lower value
Procedure, shortened: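 Complex solid-tumor spheroids incorporating human endothelial and mesenchymal stem cells received single agents or combinations over half-log dilution ranges anchored to clinical Cmax.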
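Further: seven day drug exposure begun three days after spheroid seeding.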
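Wherever viability, T/C is given: 100% = DMSO vehicle wells and lower values mean less viable spheroid.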

CCN1CCN(Cc2ccc(Nc3ncc(F)c(-c4cc(F)c5nc(C)n(C(C)C)c5c4)n3)nc2)CC1 + CCN1C(C(=O)NC23CCC(C(=O)O)(CC2)CC3)C(c2cccc(Cl)c2F)C2(C(=O)Nc3cc(Cl)ccc32)C12CCCCC2
IC50 (second compound 0.00949 µM): > 1000 nM | IC50 (second compound 0.03 µM): > 1000 nM | IC50 (second compound 0.0949 µM): > 1000 nM | IC50 (second compound 0.3 µM): > 1000 nM | IC50 (second compound 0.949 µM): > 1000 nM | IC50 (second compound 3 µM): > 1000 nM | viability, T/C (second compound 0.00949 µM, first compound 0.00316 µM): 85.7% | viability, T/C (second compound 0.00949 µM, first compound 0.01 µM): 89.3% | viability, T/C (second compound 0.00949 µM, first compound 0.0316 µM): 76.2% | viability, T/C (second compound 0.00949 µM, first compound 0.1 µM): 88.8% | viability, T/C (second compound 0.00949 µM, first compound 0.316 µM): 60.2% | viability, T/C (second compound 0.00949 µM, first compound 1 µM): 71% | viability, T/C (second compound 0.03 µM, first compound 0.00316 µM): 124% | viability, T/C (second compound 0.03 µM, first compound 0.01 µM): 84.4% | viability, T/C (second compound 0.03 µM, first compound 0.0316 µM): 91.5% | viability, T/C (second compound 0.03 µM, first compound 0.1 µM): 105% | viability, T/C (second compound 0.03 µM, first compound 0.316 µM): 93.4% | viability, T/C (second compound 0.03 µM, first compound 1 µM): 76.9% | viability, T/C (second compound 0.0949 µM, first compound 0.00316 µM): 99.8% | viability, T/C (second compound 0.0949 µM, first compound 0.01 µM): 95.7% | viability, T/C (second compound 0.0949 µM, first compound 0.0316 µM): 86.2% | viability, T/C (second compound 0.0949 µM, first compound 0.1 µM): 81.7% | viability, T/C (second compound 0.0949 µM, first compound 0.316 µM): 67.7% | viability, T/C (second compound 0.0949 µM, first compound 1 µM): 58.8% | viability, T/C (second compound 0.3 µM, first compound 0.00316 µM): 97.6% | viability, T/C (second compound 0.3 µM, first compound 0.01 µM): 83.5% | viability, T/C (second compound 0.3 µM, first compound 0.0316 µM): 69.1% | viability, T/C (second compound 0.3 µM, first compound 0.1 µM): 61.9% | viability, T/C (second compound 0.3 µM, first compound 0.316 µM): 64.2% | viability, T/C (second compound 0.3 µM, first compound 1 µM): 104% | viability, T/C (second compound 0.949 µM, first compound 0.00316 µM): 87.4% | viability, T/C (second compound 0.949 µM, first compound 0.01 µM): 72.6% | viability, T/C (second compound 0.949 µM, first compound 0.0316 µM): 84.8% | viability, T/C (second compound 0.949 µM, first compound 0.1 µM): 80.9% | viability, T/C (second compound 0.949 µM, first compound 0.316 µM): 81.2% | viability, T/C (second compound 0.949 µM, first compound 1 µM): 63% | viability, T/C (second compound 3 µM, first compound 0.00316 µM): 71.4% | viability, T/C (second compound 3 µM, first compound 0.01 µM): 69.9% | viability, T/C (second compound 3 µM, first compound 0.0316 µM): 78.6% | viability, T/C (second compound 3 µM, first compound 0.1 µM): 89.2% | viability, T/C (second compound 3 µM, first compound 0.316 µM): 72.7% | viability, T/C (second compound 3 µM, first compound 1 µM): 66.4%

NC(=O)C(=Cn1cnc(-c2cc(C(F)(F)F)cc(C(F)(F)F)c2)n1)c1cncnc1 + CCN1C(C(=O)NC23CCC(C(=O)O)(CC2)CC3)C(c2cccc(Cl)c2F)C2(C(=O)Nc3cc(Cl)ccc32)C12CCCCC2
IC50 (second compound 0.00949 µM): > 300 nM | IC50 (second compound 0.03 µM): > 300 nM | IC50 (second compound 0.0949 µM): > 300 nM | IC50 (second compound 0.3 µM): > 300 nM | IC50 (second compound 0.949 µM): > 300 nM | IC50 (second compound 3 µM): > 300 nM | viability, T/C (second compound 0.00949 µM, first compound 0.000949 µM): 102% | viability, T/C (second compound 0.00949 µM, first compound 0.003 µM): 94.8% | viability, T/C (second compound 0.00949 µM, first compound 0.00949 µM): 56.9% | viability, T/C (second compound 0.00949 µM, first compound 0.03 µM): 69.6% | viability, T/C (second compound 0.00949 µM, first compound 0.0949 µM): 65.8% | viability, T/C (second compound 0.00949 µM, first compound 0.3 µM): 81.9% | viability, T/C (second compound 0.03 µM, first compound 0.000949 µM): 87.2% | viability, T/C (second compound 0.03 µM, first compound 0.003 µM): 81% | viability, T/C (second compound 0.03 µM, first compound 0.00949 µM): 94.5% | viability, T/C (second compound 0.03 µM, first compound 0.03 µM): 81.4% | viability, T/C (second compound 0.03 µM, first compound 0.0949 µM): 63.5% | viability, T/C (second compound 0.03 µM, first compound 0.3 µM): 53.8% | viability, T/C (second compound 0.0949 µM, first compound 0.000949 µM): 87.5% | viability, T/C (second compound 0.0949 µM, first compound 0.003 µM): 94.5% | viability, T/C (second compound 0.0949 µM, first compound 0.00949 µM): 94.3% | viability, T/C (second compound 0.0949 µM, first compound 0.03 µM): 63.8% | viability, T/C (second compound 0.0949 µM, first compound 0.0949 µM): 63.4% | viability, T/C (second compound 0.0949 µM, first compound 0.3 µM): 63% | viability, T/C (second compound 0.3 µM, first compound 0.000949 µM): 75.5% | viability, T/C (second compound 0.3 µM, first compound 0.003 µM): 73.2% | viability, T/C (second compound 0.3 µM, first compound 0.00949 µM): 70.8% | viability, T/C (second compound 0.3 µM, first compound 0.03 µM): 88.2% | viability, T/C (second compound 0.3 µM, first compound 0.0949 µM): 45.1% | viability, T/C (second compound 0.3 µM, first compound 0.3 µM): 85.9% | viability, T/C (second compound 0.949 µM, first compound 0.000949 µM): 69.5% | viability, T/C (second compound 0.949 µM, first compound 0.003 µM): 71.9% | viability, T/C (second compound 0.949 µM, first compound 0.00949 µM): 58.3% | viability, T/C (second compound 0.949 µM, first compound 0.03 µM): 78.7% | viability, T/C (second compound 0.949 µM, first compound 0.0949 µM): 85.4% | viability, T/C (second compound 0.949 µM, first compound 0.3 µM): 79.2% | viability, T/C (second compound 3 µM, first compound 0.000949 µM): 69% | viability, T/C (second compound 3 µM, first compound 0.003 µM): 81.2% | viability, T/C (second compound 3 µM, first compound 0.00949 µM): 59% | viability, T/C (second compound 3 µM, first compound 0.03 µM): 65.5% | viability, T/C (second compound 3 µM, first compound 0.0949 µM): 91.2% | viability, T/C (second compound 3 µM, first compound 0.3 µM): 82.1%
